Assays:
[1] = system: resection site of a periauricular basal cell carcinoma; test: Healing of full-thickness resection site of periauricular basal cell carcinoma, topical treatment; format: in vivo, person
Text: A person underwent a full-thickness resection of a basal cell carcinoma on an outpatient basis. See FIG. 1, panel a. showing wound during operation and panel b. showing wound immediately post operation. RT175 formulated in an Amantle™ cream base was applied immediately post-operatively, and then daily thereafter for 12 days. […] An archival photo of a scar biopsy is included for comparison.

[2] = molecular target: T1, FKBP52 (Homo sapiens, UniProt Q02790); settings: treatment of fibroblasts for 2 hours; cited from earlier work
T1 construct: endogenous in cells
T1 sequence (Q02790 1-459): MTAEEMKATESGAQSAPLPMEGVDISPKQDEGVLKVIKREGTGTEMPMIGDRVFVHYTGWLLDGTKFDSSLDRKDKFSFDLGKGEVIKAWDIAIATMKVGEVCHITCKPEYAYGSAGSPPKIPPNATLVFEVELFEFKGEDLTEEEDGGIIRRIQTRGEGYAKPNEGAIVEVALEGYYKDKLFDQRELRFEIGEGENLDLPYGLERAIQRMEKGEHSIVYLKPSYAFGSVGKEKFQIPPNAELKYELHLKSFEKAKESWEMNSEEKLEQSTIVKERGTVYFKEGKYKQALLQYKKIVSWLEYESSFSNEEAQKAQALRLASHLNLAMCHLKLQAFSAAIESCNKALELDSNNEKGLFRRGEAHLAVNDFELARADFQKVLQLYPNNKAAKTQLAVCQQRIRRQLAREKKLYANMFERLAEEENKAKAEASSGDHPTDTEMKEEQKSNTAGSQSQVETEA

[3] = system: ED&C sites of the supradeltoid regions of the upper arm; test: Healing after electrodissection and curettage (ED&C) of the upper arm, topical treatment; format: in vivo, person
Description: The supradeltoid regions of the left and right upper arm were treated by electrodissection and curettage (“ED&C”) for treatment of basal cell […]. Beginning on the day of surgery, and daily thereafter the sites were treated with RT175 in an Amantle™ cream base, or with the Amantle™ cream base alone. […] See FIG. 2, Day 20, bottom panel. In contrast, 68 days after the procedure the vehicle treated site was still not fully closed. Six-months following the procedure, the RT175-treated site was scar-free, see FIG. 3, panel a., while the vehicle-treated site has a pronounced, hypopigmented stellate shaped scar, see FIG. 3, panel b.

[4] = system: stem cell markers Oct-4 and Sox-2; test: Stem cell marker immunohistology of treated 5 mm dermal biopsy punch sites; format: in vivo, person; settings: RT175 in Amantle cream base daily for 30 days, re-biopsy, 10 micron sections
Description: A person underwent bilateral 5 millimeter (“mm”) dermal biopsy punches in the forearm, 5 centimeter (“cm”) distal to the antecubital space. Treatment with RT175 in an Amantle™ cream base, or with the Amantle™ cream base alone was begun immediately upon hemostasis. The skin was treated daily for 30 days, whereupon the sites were re-biopsied and the tissue processed for immunohistology. 10 micron thick sections were stained for the expression of the stem cell markers Oct-4, see FIG. 4, panels a. and c., or Sox-2, see FIG. 4, panels b. and d. […] Not to be held to a particular theory, the presence of stem cells markers in RT175 treated wound sites indicates active stem cells. The presence of these stem cells in the wound site causes rapid and proper wound healing without the formation of scar tissue. In turn, the absence of stem cells from wound sites allows the formation of scar tissue.

[5] = molecular target: T2, FK506 binding protein 4 (FKBP52) (Homo sapiens, UniProt Q02790); settings: cited from earlier work
T2 sequence (Q02790 1-459): T1 sequence (Q02790 1-459)

[6] = system: dermabrasion lesions of dorsal skin; test: Dermabrasion lesions of dorsal skin of mice, topical treatment; format: in vivo, ICR breeder mice; settings: 5 μL of 100 nanomolar RT1061 topical once daily, 10 days after rasping
Description: Retired ICR breeder mice of both sexes with weight between 45 and 50 grams were shaved and rasped to induce dermabrasion lesions. The animals were then randomly assigned (5 per treatment arm) to one of two groups to receive either 5 μL of 100 nanomolar RT1061 or a vehicle control. RT1061 or vehicle control was applied topically to the lesion site once each day including immediately after dermabrasion.

[7] = system: ear punch-hole wound (mouse pinna); test: Punch-hole biopsy of the ear of mice, topical treatment; format: in vivo, ICR breeder mice; settings: topical once daily, within 21 days of punch-hole biopsy; 2.4 μg RT1061, 80 μg FK506
Description: Retired ICR breeder mice of both sexes with weight between 45 and 50 grams were subject to single bilateral punch-hole biopsies. The animals were then randomly assigned to one of three groups to receive either 2.4 μg of RT1061, 80 μg FK506 or a vehicle control. RT1061, FK506 or vehicle control was applied topically to both the ventral and dorsal surface of the ear, once each day including immediately after biopsy.
All wounds were photographed using a Nikon CoolPix 990 digital camera. Each image included a metric ruler that had been approximated to the wound. The images of the wounds were opened in Adobe Photoshop, and using the “measurement tool”, the length, in pixels, of 3 cm along the ruler's straight edge was determined. That number was used to calculate a conversion factor that was then used to normalize each photograph. The conversion factor was calculated as 100/length. To normalize the area of the lesion in a photograph, the […] using the “magic wand” tool, and the number of voxels were multiplied by the conversion factor, thus generating the equation: area=volume (voxels)*conversion factor. The area at t=0 was defined as 100%. […] The mean area of the initial hole was calculated as average […] of the punches at t=0 (determined by using an outline of the hole measured against the ruler, using Adobe Photoshop) times π. […]

Compound | scar observed, skin appearance ([1]; 12th post-operative day, RT175 in Amantle cream base daily) | wound closed and largely healed by ([1]; RT175 in Amantle cream base, applied immediately post-operatively then daily for 12 days) | scar tissue by biopsy ([1]; biopsy 6 months later) | translocation of FKBP52 [2] | treated site fully closed by ([3]; RT175 in Amantle cream base daily, vehicle site still not fully closed at 68 days) | scar at treated site ([3]; six months following the procedure) | expression of stem cell markers Oct-4 and Sox-2 in treated tissue [4] | binding affinity to FKBP52 [5] | hair growth [6] | regeneration of rasped skin [6] | regeneration of mouse pinna tissue (ear-hole closure) [7]
CCC(C)(C)C(=O)C(=O)N1CCC[C@H]1C(=O)O [RT175] | little to no scar | ≤ 7 post-operative day | absence of scar tissue | translocation of FKBP52 to the nucleus | ≤ 20 post-operative day | scar-free | expressed both stem cell markers | high affinity | – | – | –
CCC(C)(C)C(=O)C(=O)N1CCCC1Cc1ccccc1 (centres unmarked) [RT1061, 1-(2-benzylpyrrolidin-1-yl)-3,3-dimethylpentane-1,2-dione] | – | – | – | – | – | – | – | – | rapid hair growth | rapid regeneration of rasped skin | almost complete regeneration of the mouse pinna

— patent US20170266157A1, “METHODS FOR WOUND HEALING AND SCAR PREVENTION” (priority 2016, published 2017)
